≈ marks a conversion by molar mass, not a printed value. Bridge positions count the residues as written; N and C are the ends. Side chains are listed from the residue outwards. Peptide text beside a SMILES is read from it. I, II: the chains in the order shown. * marks the point of attachment. Lauroyl = CCCCCCCCCCCC(=O)*; Hexanoyl = CCCCCC(=O)*
Tests used:
[1] = system: P. aeruginosa ATCC 27853; assay: microbe, parasite or virus in culture; assay type: cell-based, Pseudomonas aeruginosa; settings: ATCC 27853
Protocol: (§1) Clinical isolates of CRE, MRSA and VRE were obtained from Lancet Laboratories, Durban, South Africa, with approval BE394/15 from the Biomedical Research Ethical Committee of the University of KwaZulu-Natal. Five reference strains of bacteria, namely Escherichia coli ATCC 25922, Pseudomonas aeruginosa ATCC 27853, Enterococcus faecium ATCC 35667, Staphylococcus aureus ATCC 29213 and Bacillus subtilis ATCC 6051 were supplied by the American Type Culture Collection (ATCC).
(§2) MIC values were determined by the broth microdilution method and the significance of the values obtained was interpreted following the guidelines of the Clinical and Laboratory Standards for Antimicrobial Susceptibility Testing.. The effect of human serum on the antimicrobial effect of the molecules tested was determined in a similar way to the MIC method used above in a solution of 50% human serum plus Mueller–Hinton broth.

[2] = system: E. faecium ATCC 35667; assay: microbe, parasite or virus in culture; assay type: cell-based, Enterococcus faecium; settings: ATCC 35667
Protocol: as §1, §2

[3] = MTT cytotoxicity assay; assay type: cell-based, human; settings: human, HepG2 cells, HepG2, 24 h exposure
Protocol: (§3) Cell viability was evaluated using the colorimetric MTT assay [21]. Human hepatocarcinoma (HepG2) cells and human embryonic kidney 293 (HEK-293) cells used in the drug toxicity assays were obtained from Cellonex (Johannesburg, South Africa). Viable HepG2 and HEK293 cells (20,000 cells/well) were seeded into a 96-well microtiter plate (200 µL) and allowed to attach overnight. The cells were exposed to varying concentrations of the peptides for 24 h. After removal of the treatment medium, 20 µL of MTT salt solution (5 mg/mL in 0.1M phosphate buffer saline (PBS)) and 100 µL of complete cell culture medium (CCM) were added to each well. After a 4 h (37 °C) incubation, the MTT salt solution was discarded and 100 μL of dimethyl sulphoxide (DMSO) were added to each well (1 h, 37 °C). The optical density of the solubilized formazan product was measured at 570 nm (reference λ of 690 nm) using a Bio-tek μQuant spectrophotometer (Winooski, VT, USA). […] GraphPad Prism (V5) (La Jolla, CA, USA) was used to obtain the half maximum inhibitory concentration (IC50) for each compound.

[4] = system: S. aureus ATCC 29213; assay: microbe, parasite or virus in culture; assay type: cell-based, Staphylococcus aureus; settings: ATCC 29213
Protocol: as §1, §2

[5] = system: B. subtilis ATCC 6051; assay: microbe, parasite or virus in culture; assay type: cell-based, Bacillus subtilis; settings: ATCC 6051
Protocol: as §1, §2

[6] = in vitro; settings: human
Protocol: as §3

[7] = system: E. coli ATCC 25822; assay: microbe, parasite or virus in culture; assay type: cell-based, Escherichia coli; settings: ATCC 25822
Protocol: as §1, §2

[8] = system: MRSA (methicillin-resistant S. aureus) isolates; assay: microbe, parasite or virus in culture; assay type: cell-based
Protocol: as §1, §2

[9] = system: VRE, E. faecium isolates; assay: microbe, parasite or virus in culture; assay type: cell-based
Protocol: as §1, §2

[10] = methicillin-resistant ) isolates

Row | Compound | MBC [1] [µg/mL] | MIC [1] [µg/mL] | MBC [2] [µg/mL] | MIC [2] [µg/mL] | MBC [4] [µg/mL] | MIC [4] [µg/mL] | MBC [5] [µg/mL] | MIC [5] [µg/mL] | MBC [7] [µg/mL] | MIC [7] [µg/mL] | further results
1 | CC(C)C[C@H](NC(=O)[C@H](CC(C)C)NC(=O)[C@H](CCCNC(=N)N)NC(=O)[C@H](CC(C)C)NC(=O)[C@H](CC(C)C)NC(=O)[C@H](CCCCNC(=O)[C@H](CCCNC(=N)N)NC(=O)[C@H](CC(C)C)NC(=O)[C@@H](N)CCCNC(=N)N)NC(=O)[C@H](CCCNC(=N)N)NC(=O)[C@H](CC(C)C)NC(=O)[C@@H](N)CCCNC(=N)N)C(N)=O [G1RLR-L2RL2, (RLR)2KLLRLL-NH2] (H-RLRK([Arg-Leu-Arg])LLRLL-NH2) | 16 (≈ 9.97 µM) | 16 (≈ 9.97 µM) | 4 (≈ 2.49 µM) | 4 (≈ 2.49 µM) | 16 (≈ 9.97 µM) | 16 (≈ 9.97 µM) | 32 (≈ 19.9 µM) | 32 (≈ 19.9 µM) | 8 (≈ 4.98 µM) | 8 (≈ 4.98 µM) | IC50 at 24 h [3]: 328 µg/mL (≈ 204 µM); IC50 at 24 h [6]: 153 µg/mL (≈ 95.3 µM)
2 | I: H-KLKK([Lys-Leu-Lys])KLKKKLKKLLKLL-NH2 / II: H-KLKK([Lys-Leu-Lys])KLKKKLK / III: H-KLKK([Lys-Leu-Lys])KLK / IV: H-KLKK([Lys-Leu-Lys])KLK (amide I:8-IV:C, I:12-II:C, II:8-III:C) [G3KLK-L2KL2, (KLK)8(KKLK)4(KKLK)2KLLKLL-NH2] | 16 | 16 | 64 | 64 | 16 | 16 | 8 | 4 to 8 | 32 | 32 | IC50 at 24 h [3]: 25.7 µg/mL; IC50 at 24 h [6]: 53.9 µg/mL
3 | CC1(C)S[C@@H]2[C@H](NC(=O)[C@H](N)c3ccccc3)C(=O)N2[C@H]1C(=O)O [Amp, reference compound] |  |  |  |  |  |  |  |  |  |  | MIC ([8]; MRSA isolate 440260): >512 µg/mL; MIC ([8]; MRSA isolate B11970): >512 µg/mL; MIC ([8]; MRSA isolate B13178): >512 µg/mL; MIC ([8]; MRSA isolate P10747): >512 µg/mL; MIC ([8]; MRSA isolate P10781): >512 µg/mL; MIC ([8]; MRSA isolate P11520): 512 µg/mL (≈ 1470 µM); MIC ([8]; MRSA isolate S18155): >512 µg/mL; MIC ([8]; MRSA isolate S18970): >512 µg/mL; MIC ([8]; MRSA isolate S37938): >512 µg/mL; MIC ([8]; MRSA isolate T5683): >512 µg/mL
4 | CCCCCC(=O)N[C@@H](CCCCN)C(=O)N[C@@H](CC(C)C)C(=O)N[C@@H](CCCCN)C(=O)NCCCC[C@H](NC(=O)[C@H](CCCCN)NC(=O)[C@H](CC(C)C)NC(=O)[C@H](CCCCN)NC(=O)CCCCC)C(=O)N[C@@H](CCCCN)C(=O)N[C@@H](CC(C)C)C(=O)N[C@@H](CCCCN)C(=O)NCCCC[C@H](NC(=O)[C@H](CCCCN)NC(=O)[C@H](CC(C)C)NC(=O)[C@H](CCCCN)NC(=O)[C@H](CCCCNC(=O)[C@H](CCCCN)NC(=O)[C@H](CC(C)C)NC(=O)[C@H](CCCCN)NC(=O)CCCCC)NC(=O)[C@H](CCCCN)NC(=O)[C@H](CC(C)C)NC(=O)[C@H](CCCCN)NC(=O)CCCCC)C(=O)N[C@@H](CC(C)C)C(=O)N[C@@H](CC(C)C)C(=O)N[C@@H](CCCCN)C(=O)N[C@@H](CC(C)C)C(=O)N[C@@H](CC(C)C)C(N)=O [Hx-G2KLK-L2KL2, (Hx-KLK)4(KKLK)2KLLKLL-NH2] (I: Hexanoyl-KLKK([Lys-Leu-Lys-Hexanoyl])KLKKLLKLL-NH2 / II: Hexanoyl-KLKK([Lys-Leu-Lys-Hexanoyl])KLK; amide I:8-II:C; N-terminus assumed) | 64 (≈ 17.8 µM) | 64 (≈ 17.8 µM) | 64 (≈ 17.8 µM) | 32 (≈ 8.91 µM) | 128 (≈ 35.6 µM) | 128 (≈ 35.6 µM) | 128 (≈ 35.6 µM) | 64 (≈ 17.8 µM) | 64 (≈ 17.8 µM) | 64 (≈ 17.8 µM) | MIC [8, 10]: 64 µg/mL (≈ 17.8 µM)
5 | CN[C@H](CC(C)C)C(=O)N[C@H]1C(=O)N[C@@H](CC(N)=O)C(=O)N[C@H]2C(=O)N[C@H]3C(=O)N[C@H](C(=O)N[C@H](C(=O)O)c4cc(O)cc(O)c4-c4cc3ccc4O)[C@H](O)c3ccc(c(Cl)c3)Oc3cc2cc(c3O[C@@H]2O[C@H](CO)[C@@H](O)[C@H](O)[C@H]2O[C@H]2C[C@](C)(N)[C@H](O)[C@H](C)O2)Oc2ccc(cc2Cl)[C@H]1O [Van, vancomycin, reference compound] |  |  |  |  |  |  |  |  |  |  | MIC ([9]; Enterococcus faecium): > 128 µg/mL; MIC ([9]; Enterococcus faecium, VRE): > 128 µg/mL; MIC ([9]; VRE E. faecium isolate 938072607): >128 µg/mL; MIC ([9]; VRE E. faecium isolate 938600912): >128 µg/mL; MIC ([9]; VRE E. faecium isolate 938636470): >128 µg/mL; MIC ([9]; VRE E. faecium isolate 938666613): >128 µg/mL; MIC ([9]; VRE E. faecium isolate 945530665): >128 µg/mL; MIC ([9]; VRE E. faecium isolate 951208931): >128 µg/mL; MIC ([9]; VRE E. faecium isolate 951234856): >128 µg/mL; MIC ([9]; VRE E. faecium isolate 951245262): >128 µg/mL; MIC ([8]; MRSA isolate B11970): 1 µg/mL (≈ 0.69 µM); MIC ([8]; MRSA isolate B13178): 1 µg/mL (≈ 0.69 µM); MIC ([8]; MRSA isolate P10747): 1 µg/mL (≈ 0.69 µM); MIC ([8]; MRSA isolate P10781): 1 µg/mL (≈ 0.69 µM); MIC ([8]; MRSA isolate P11520): 1 µg/mL (≈ 0.69 µM); MIC ([8]; MRSA isolate S18155): 1 µg/mL (≈ 0.69 µM); MIC ([8]; MRSA isolate S37938): 1 µg/mL (≈ 0.69 µM); MIC ([8]; MRSA isolate T5683): 1 µg/mL (≈ 0.69 µM); MIC ([8]; Staphylococcus aureus): 1 µg/mL (≈ 0.69 µM); MIC ([8]; Staphylococcus aureus, MRSA): 1 µg/mL (≈ 0.69 µM)
6 | CC(=O)N[C@@H](CCCCN)C(=O)N[C@@H](CC(C)C)C(=O)N[C@@H](CCCCN)C(=O)NCCCC[C@H](NC(=O)[C@H](CCCCN)NC(=O)[C@H](CC(C)C)NC(=O)[C@H](CCCCN)NC(C)=O)C(=O)N[C@@H](CCCCN)C(=O)N[C@@H](CC(C)C)C(=O)N[C@@H](CCCCN)C(=O)NCCCC[C@H](NC(=O)[C@H](CCCCN)NC(=O)[C@H](CC(C)C)NC(=O)[C@H](CCCCN)NC(=O)[C@H](CCCCNC(=O)[C@H](CCCCN)NC(=O)[C@H](CC(C)C)NC(=O)[C@H](CCCCN)NC(C)=O)NC(=O)[C@H](CCCCN)NC(=O)[C@H](CC(C)C)NC(=O)[C@H](CCCCN)NC(C)=O)C(=O)N[C@@H](CC(C)C)C(=O)N[C@@H](CC(C)C)C(=O)N[C@@H](CCCCN)C(=O)N[C@@H](CC(C)C)C(=O)N[C@@H](CC(C)C)C(N)=O [Ac-G2KLK-L2KL2, (Ac-KLK)4(KKLK)2KLLKLL-NH2] (I: Ac-KLKK([Lys-Leu-Lys-Ac])KLKKLLKLL-NH2 / II: Ac-KLKK([Lys-Leu-Lys-Ac])KLK; amide I:8-II:C) | 16 (≈ 4.75 µM) | 8 to 16 | 128 (≈ 38 µM) | 64 (≈ 19 µM) | 128 (≈ 38 µM) | 64 (≈ 19 µM) | 16 (≈ 4.75 µM) | 8 to 16 | 16 (≈ 4.75 µM) | 8 to 16 | MIC [8, 10]: 128 µg/mL (≈ 38 µM)
7 | CCCCCCCCCCCC(=O)N[C@@H](CCCCN)C(=O)N[C@@H](CC(C)C)C(=O)N[C@@H](CCCCN)C(=O)NCCCC[C@H](NC(=O)[C@H](CCCCN)NC(=O)[C@H](CC(C)C)NC(=O)[C@H](CCCCN)NC(=O)CCCCCCCCCCC)C(=O)N[C@@H](CCCCN)C(=O)N[C@@H](CC(C)C)C(=O)N[C@@H](CCCCN)C(=O)NCCCC[C@H](NC(=O)[C@H](CCCCN)NC(=O)[C@H](CC(C)C)NC(=O)[C@H](CCCCN)NC(=O)[C@H](CCCCNC(=O)[C@H](CCCCN)NC(=O)[C@H](CC(C)C)NC(=O)[C@H](CCCCN)NC(=O)CCCCCCCCCCC)NC(=O)[C@H](CCCCN)NC(=O)[C@H](CC(C)C)NC(=O)[C@H](CCCCN)NC(=O)CCCCCCCCCCC)C(=O)N[C@@H](CC(C)C)C(=O)N[C@@H](CC(C)C)C(=O)N[C@@H](CCCCN)C(=O)N[C@@H](CC(C)C)C(=O)N[C@@H](CC(C)C)C(N)=O [Dd-G2KLK-L2KL2, (Dd-KLK)4(KKLK)2KLLKLL-NH2] (I: Lauroyl-KLKK([Lys-Leu-Lys-Lauroyl])KLKKLLKLL-NH2 / II: Lauroyl-KLKK([Lys-Leu-Lys-Lauroyl])KLK; amide I:8-II:C; N-terminus assumed) |  | >128 |  | >128 |  | >128 |  | >128 |  | >128 | 
